From patent publication US12364718B2, “Microbial compositions to increase the production of PCA from polyphenols” (priority 2020, dated 2025)

Assays:
B. subtilis 1579 = assay: National Antimicrobial Resistance Monitoring System (NARMS) panel screening, MIC in […] 96-well plate; assay type: cell-based, Bacillus subtilis; design: Minimum Inhibitory Concentrations (MIC), 1579a / Minimum Inhibitory Concentrations (MIC), 1579b: unit not given here; details: for MIC interpretation (susceptible/intermediate/resistant), 1579a / Minimum Inhibitory Concentrations (MIC), 1579a: duplicate a; for MIC interpretation (susceptible/intermediate/resistant), 1579a / MIC interpretation (susceptible/intermediate/resistant), 1579b: CLSI M45 Bacillus spp. or NARMS Enterococcus breakpoints; for MIC interpretation (susceptible/intermediate/resistant), 1579b / Minimum Inhibitory Concentrations (MIC), 1579b: duplicate b; for Minimum Inhibitory Concentrations (MIC), 1579a / Minimum Inhibitory Concentrations (MIC), 1579b: Mueller-Hinton broth, 37° C., read at 18 hours
Description: Methods. […] A sterile swab was used to take a portion of the pellet and resuspended in sterile ddH2O tubes; a 0.5 McFarland standard was used to determine the optimal dilution. 15 microliters of the ddH2O was transferred into the 5 mL tubes of Mueller-Hinton broth and the mixture was vortexed and poured into a sterile boat. A p200 multi-channel pipette was used to transfer 50 microliters into each well of the […] 96-well microtiter plate (CMV3AGPF) plate (FIG. 3) and sealed. The plates were incubated at 37° C. overnight. The plates were removed at 18 hours and each well was given a result of either positive or negative depending on if there was any growth in the well.

[1] = system: Bovine Aortic Endothelial Cells (BAEC); assay: Inflammatory marker gene expression in LPS stimulated bovine endothelial cells (qPCR); assay type: cell-based; design: Cox-2 gene expression: dose or concentration left out as unconfirmed; details: LPS stimulation, 6 hours, qPCR vs GAPDH
Description: To determine potential mode of action of PCA, in vitro studies were performed using Bovine Aortic Endothelial Cells (BAEC). Stress was induced in mammalian endothelial cells using a lipopolysaccharide (LPS) model, which causes an inflammatory response through inflammatory cytokine, NO and prostaglandin release. After 6 hours, cells were lysed and cellular RNA was recovered using Direct-zol RNA MiniPrep Plus kit (Zymo Research) following the manufacturer's instructions. RNA was converted to cDNA using the QuantiNova Reverse Transcription Kit (Qiagen). Gene expression was then quantified using the QuantiTect SYBR Green PCR kit with primers specific for inflammatory markers. Inducible nitric oxide expression was screened using primers iNOSF ([…], SEQ ID NO: 7) and iNOSR ([…], SEQ ID NO: 8), Cyclo-oxygenase 2 primers, COX2F ([…], SEQ ID NO: 9) and COX2R ([…], SEQ ID NO: 10), and Interleukin-6 primers IL6F ([…], SEQ ID NO: 11) and IL6R ([…], SEQ ID NO: 12) compared against the house keeping gene GAPDH, primers GAPDH-F ([…], SEQ ID NO: 13) and GAPDH-R ([…], SEQ ID NO: 14). Quantitative PCR reactions were set up in 20 μl volumes as per the manufacturer's recommendations (Qiagen). Thermocycler conditions started with a 15 min denaturation at 95° C. followed by 40 cycles of denaturation at 95° C. for 15 seconds, annealing at 60° C. for 30 seconds and extension at 60° C. for 30 seconds before a melt curve.

CN(C)c1cc(NC(=O)CNC(C)(C)C)c(O)c2c1C[C@H]1C[C@H]3[C@H](N(C)C)C(O)=C(C(N)=O)C(=O)[C@@]3(O)C(O)=C1C2=O [Tigercycline]
MIC interpretation (susceptible/intermediate/resistant), 1579a (B. subtilis 1579): S
MIC interpretation (susceptible/intermediate/resistant), 1579b (B. subtilis 1579): S

CN[C@H](CC(C)C)C(=O)N[C@H]1C(=O)N[C@@H](CC(N)=O)C(=O)N[C@H]2C(=O)N[C@H]3C(=O)N[C@H](C(=O)N[C@H](C(=O)O)c4cc(O)cc(O)c4-c4cc3ccc4O)[C@H](O)c3ccc(c(Cl)c3)Oc3cc2cc(c3O[C@@H]2O[C@H](CO)[C@@H](O)[C@H](O)[C@H]2O[C@H]2C[C@](C)(N)[C@H](O)[C@H](C)O2)Oc2ccc(cc2Cl)[C@H]1O [Vancomycin]
MIC interpretation (susceptible/intermediate/resistant), 1579a (B. subtilis 1579): S
MIC interpretation (susceptible/intermediate/resistant), 1579b (B. subtilis 1579): S

CCCCCCCCCC(=O)N[C@@H](Cc1c[nH]c2ccccc12)C(=O)N[C@H](CC(N)=O)C(=O)N[C@@H](CC(=O)O)C(=O)N[C@@H]1C(=O)NCC(=O)N[C@@H](CCCN)C(=O)N[C@@H](CC(=O)O)C(=O)N[C@H](C)C(=O)N[C@@H](CC(=O)O)C(=O)NCC(=O)N[C@H](CO)C(=O)N[C@@H]([C@H](C)CC(=O)O)C(=O)N[C@@H](CC(=O)c2ccccc2N)C(=O)O[C@@H]1C [Daptomycin]
MIC interpretation (susceptible/intermediate/resistant), 1579a (B. subtilis 1579): S
MIC interpretation (susceptible/intermediate/resistant), 1579b (B. subtilis 1579): S

Quinupristin/dalfopristin
Minimum Inhibitory Concentrations (MIC), 1579a (B. subtilis 1579): 4
Minimum Inhibitory Concentrations (MIC), 1579b (B. subtilis 1579): 32

Penicillin
MIC interpretation (susceptible/intermediate/resistant), 1579a (B. subtilis 1579): S
Minimum Inhibitory Concentrations (MIC), 1579a (B. subtilis 1579): 1
MIC interpretation (susceptible/intermediate/resistant), 1579b (B. subtilis 1579): S
Minimum Inhibitory Concentrations (MIC), 1579b (B. subtilis 1579): 0.5

Gentamycin
MIC interpretation (susceptible/intermediate/resistant), 1579a (B. subtilis 1579): S
Minimum Inhibitory Concentrations (MIC), 1579a (B. subtilis 1579): 128
MIC interpretation (susceptible/intermediate/resistant), 1579b (B. subtilis 1579): S
Minimum Inhibitory Concentrations (MIC), 1579b (B. subtilis 1579): 128

O=C(O)c1ccc(O)c(O)c1 [PCA, protocatechuic acid]
IL-6 expression ([1]; 1 g/ml and 10 µg/ml PCA): dose dependently decreased
iNOS gene expression ([1]; 1 g/ml and 10 µg/ml PCA): decreased
Cox-2 gene expression ([1]; PCA): decreased
